In this test the test system is yeast RJD 2456 GFP degradation, flow cytometry. As to the kind of experiment: PubChem AID 1207. Conditions: at 150 µM; stronger effect = higher value.

The source made the active and inactive calls.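 Rule for the calls: active = score above 15, the percent gain in GFP-over-time curve area versus untreated cells across six hours; inactive = the rest.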 Peptide text beside a SMILES is read from it. * marks the point of attachment. Cbz = O=C(OCc1ccccc1)*

Take `CC(=O)N1C(=O)C(=C2C=C(C)OC(C)=C2)c2ccccc21`: the GFP remaining was 0.705% (inactive).
Take `CC(C)C[C@@H](C=O)NC(=O)[C@H](CC(C)C)NC(=O)[C@H](CC(C)C)NC(=O)OCc1ccccc1` (Cbz-Leu-Leu-Leu-aldehyde): the GFP remaining is 1.91% (inactive).

(Values after PubChem BioAssay AID1207 (NMMLSC, 2008).)
